Data published in PMC7850479, “A drug repurposing screen identifies hepatitis C antivirals as inhibitors of the SARS-CoV2 main protease” (PLoS ONE, 2021).
Read-outs that look alike come from different tables or passages of the source. Residues, ends and D or L forms follow the SMILES beside them.

How the values were obtained:
SARS-CoV-2 Mpro [1] = target: T1, SARS-CoV-2 Mpro (Severe acute respiratory syndrome coronavirus 2, UniProt P0DTD1); experiment: Dose validation assay (10-point dose-response), fluorescent Mpro protease assay with Ac-Abu-Tle-Leu-Gln-AFC; assay type: biochemical; details: for IC50 / Hill Slope: 80nM Mpro, 32μM Ac-Abu-Tle-Leu-Gln-AFC, n = 3, 4-parameter nonlinear regression; for IC50: 10 concentrations 150 μM to 7.6 nM
SARS-CoV-2 Mpro [2] = target: T1, SARS-CoV-2 Mpro; assay type: biochemical
SARS-CoV-2 = details: cellular model of viral replication; read-out: EC50, SARS-CoV-2 antiviral activity; cited from earlier work
HCV protease = details: cited from earlier work
NS3 protease variants = details: HCV NS3 single amino acid mutations; cited from earlier work
Covid-19 patients = test system: Covid-19 patients; design: method as in PMID 32445440; details: cohort of 1062 patients, placebo control 15 days; cited from earlier work
[3] = Z-score in the protease inhibition assay, ΔRFU at 10 minutes, 50 μM compound, substrate not stated

Molecule: O=c1c2ccccc2[se]n1-c1ccccc1 [Ebselen]
- dose response against Mpro cleavage of substrate Ac-Abu-Tle-Leu-Gln-AFC (SARS-CoV-2 Mpro [1]; result in words, S1 Fig): failed to show a significant dose response

Molecule: CCOC(=O)c1ccc(N2NC(=O)/C(=C/c3ccc([N+](=O)[O-])o3)C2=O)cc1 [PYR-41]
- IC50 (SARS-CoV-2 Mpro [1]): 17.4 µM
- Hill Slope (SARS-CoV-2 Mpro [1]): 0.9933

Molecule: C[C@H](NC(=O)[C@@H](Cc1c[nH]c2ccccc12)NC(=O)[C@@H](N)Cc1cnc[nH]1)C(=O)N[C@@H](Cc1c[nH]c2ccccc12)C(=O)N[C@H](Cc1ccccc1)C(=O)N[C@@H](CCCCN)C(N)=O [U-75799E] (HELM PEPTIDE1{H.[dW].A.W.[dF].K.[am]}$$$$V2.0)
- Z10 (SARS-CoV-2 Mpro [2]): 1.044

Molecule: OC[C@H]1O[C@H]([S-])[C@H](O)[C@@H](O)[C@@H]1O.[Au+] [aurothioglucose]
- IC50 (SARS-CoV-2 Mpro [1]): 13.3 µM
- Hill Slope (SARS-CoV-2 Mpro [1]): 1.496

Molecule: CC(C)(C)NC(=O)N[C@H](C(=O)N1C[C@H]2[C@@H]([C@H]1C(=O)NC(CC1CCC1)C(=O)C(N)=O)C2(C)C)C(C)(C)C (stereo partly shown) [boceprevir]
- EC50 (SARS-CoV-2): 1.95 ± 1.62 µM
- Hill Slope (SARS-CoV-2 Mpro [1]): 0.4123
- reduction in potency against enzymatic activity, SARS-CoV-2 Mpro compared to HCV protease (SARS-CoV-2 Mpro [1]; ~1 μM for Mpro versus below 90 nM for HCV protease): 10 fold
- IC50 (HCV protease): < 0.09 µM
- reduction in activity caused by single amino acid mutations (NS3 protease variants): up to 120 fold

Molecule: CCCC[C@@H](C=O)NC(=O)[C@H](CC(C)C)NC(=O)OCc1ccccc1 [calpeptin]
- Hill Slope (SARS-CoV-2 Mpro [1]): 1.009

Molecule: COc1ccc2c(O[C@@H]3C[C@H]4C(=O)N[C@]5(C(=O)O)C[C@H]5/C=C\CCCCC[C@H](NC(=O)OC5CCCC5)C(=O)N4C3)cc(-c3csc(NC(C)C)n3)nc2c1 [ciluprevir]
- IC50 (SARS-CoV-2 Mpro [1]): 20.8 µM
- Hill Slope (SARS-CoV-2 Mpro [1]): 1.133

Molecule: CC(=O)N(CC(O)CN(C(C)=O)c1c(I)c(C(=O)NCC(O)CO)c(I)c(C(=O)NCC(O)CO)c1I)c1c(I)c(C(=O)NCC(O)CO)c(I)c(C(=O)NCC(O)CO)c1I (stereo not shown) [iodixanol]
- Z10 (SARS-CoV-2 Mpro [2]; [3]): -0.9551

Molecule: CCCC[C@H](NC(=O)[C@@H]1[C@@H]2[C@H](CN1C(=O)[C@@H](NC(=O)NC1(CS(=O)(=O)C(C)(C)C)CCCCC1)C(C)(C)C)C2(C)C)C(=O)C(=O)NC1CC1 [narlaprevir]
- Hill Slope (SARS-CoV-2 Mpro [1]): 0.9106

Molecule: CCC(CC)COC(=O)[C@H](C)N[P@](=O)(OC[C@H]1O[C@@](C#N)(c2ccc3c(N)ncnn23)[C@H](O)[C@@H]1O)Oc1ccccc1 [remdesivir]
- period of recovery (Covid-19 patients): 10 days

Molecule: CCC[C@H](NC(=O)[C@@H]1[C@H]2CCC[C@H]2CN1C(=O)[C@@H](NC(=O)[C@@H](NC(=O)c1cnccn1)C1CCCCC1)C(C)(C)C)C(=O)C(=O)NC1CC1 [telaprevir]
- Hill Slope (SARS-CoV-2 Mpro [1]): 1.062

Molecule: dalargin
- Z10 (SARS-CoV-2 Mpro [2]; [3]): -1.032

Molecule: desmopressin-acetate
- Z10 (SARS-CoV-2 Mpro [2]; [3]): -0.4942

Molecule: hemin
- IC50 (SARS-CoV-2 Mpro [1]): 9.68 µM
- Hill Slope (SARS-CoV-2 Mpro [1]): 1.354
